Data on two compounds can be found in patent publication US20070098685A1, “Methods and kits to treat chronic inflammatory immune diseases by administering a proteasome inhibitor and an interleukin 2 receptor agonist” (priority 2005, published 2007).

Read-outs that look alike come from different tables or passages of the source.

The conditions of series [1]: in vivo; cited from earlier work.
For series [2] the following is noted: cited from earlier work.
The target of series [3] is T1, high affinity IL2 receptor (Homo sapiens, UniProt P01589+P14784+P31785).
T1 sequence (P01589 22-272): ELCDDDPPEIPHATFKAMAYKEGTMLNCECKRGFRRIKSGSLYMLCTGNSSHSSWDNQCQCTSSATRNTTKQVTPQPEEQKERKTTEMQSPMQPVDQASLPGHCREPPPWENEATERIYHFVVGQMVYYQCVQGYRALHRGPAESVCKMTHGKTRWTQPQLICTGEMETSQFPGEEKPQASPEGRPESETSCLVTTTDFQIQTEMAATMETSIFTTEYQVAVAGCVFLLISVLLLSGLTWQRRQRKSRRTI
T1 sequence (P14784 27-551): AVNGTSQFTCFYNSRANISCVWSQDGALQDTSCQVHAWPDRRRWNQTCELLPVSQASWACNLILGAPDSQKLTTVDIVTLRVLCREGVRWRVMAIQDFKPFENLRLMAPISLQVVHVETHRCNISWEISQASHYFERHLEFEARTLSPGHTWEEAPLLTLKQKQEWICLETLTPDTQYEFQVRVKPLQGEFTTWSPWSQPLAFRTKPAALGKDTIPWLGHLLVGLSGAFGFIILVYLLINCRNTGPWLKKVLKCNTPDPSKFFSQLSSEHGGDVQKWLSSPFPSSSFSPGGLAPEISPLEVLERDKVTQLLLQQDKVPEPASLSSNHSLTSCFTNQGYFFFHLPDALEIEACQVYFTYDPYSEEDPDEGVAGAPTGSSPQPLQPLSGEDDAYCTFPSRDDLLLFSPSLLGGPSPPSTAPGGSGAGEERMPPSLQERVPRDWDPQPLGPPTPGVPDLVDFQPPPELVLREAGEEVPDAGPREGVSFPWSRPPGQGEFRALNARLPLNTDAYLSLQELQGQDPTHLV
T1 sequence (P31785 23-369): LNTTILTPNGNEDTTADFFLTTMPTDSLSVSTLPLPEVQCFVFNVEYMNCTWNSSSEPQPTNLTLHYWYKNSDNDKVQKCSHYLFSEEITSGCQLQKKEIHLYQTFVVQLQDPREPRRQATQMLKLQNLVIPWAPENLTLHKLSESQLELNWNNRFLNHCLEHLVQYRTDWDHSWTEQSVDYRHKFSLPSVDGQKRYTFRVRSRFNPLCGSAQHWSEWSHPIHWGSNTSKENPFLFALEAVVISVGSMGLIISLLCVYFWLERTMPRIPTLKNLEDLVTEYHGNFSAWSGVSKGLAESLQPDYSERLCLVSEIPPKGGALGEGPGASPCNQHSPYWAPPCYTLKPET
Particulars: high affinity IL2 receptor on activated T cells; cited from earlier work.

Series [4] concerns blood cell proteasome. Particulars: rats, cited from earlier work.
The conditions of series [5]: humans, cited from earlier work.
The nature of series [6]: Animal models of immune disease. Particulars: 0.03 mg/kg dose. Format: in vivo. The procedure:
Without being limited by any particular theory or mechanism, a preferred embodiment of the method is administering systemically a dose of a proteasome inhibitor that gives partial inhibition (20-30%) of red blood cell proteasome activity. In human subjects, a Velcade™ PS-341dose of 0.4 mg/m^2 gave 30% inhibition of blood cell proteasome activity after a single intravenous bolus injection; (Orlowski et al. 2002 J. Clin. Oncol. 20 pp. 4420-27).

The conditions of series [7]: cited from earlier work. This is another data set of the same source.
For series [8] the following is noted: human subjects, 0.4 mg/m^2; cited from earlier work.
The subject of series [9] is CD4Th1 T cell mediated inflammation. Put plainly: Delayed type hypersensitivity (DTH) reaction in mice, ear swelling after topical DNFB. The series is classed as in vivo. Particulars: PS 341 0.003 to 0.01 or 0.03 mg/kg co-administered with IL2 (4 ng), FIG. 2. The text has this:
FIG. 1 is a drawing of a protocol for induction and assay of delayed-type hypersensitivity (DTH) in mice, as a function of time from left to right. Groups of experimental animals are sensitized on two successive days (at time points indicated as days—5 and —4 in the Figure) by application of 2,4-dinitro-1-fluorobenzene (DNFB; obtained from Sigma, St. Louis, Mo) to footpads, the DNFB dissolved in acetone or acetone/olive oil. After an additional day (at time indicated as day—3) proteasome inhibitor PS 341 and interleukin 2 (IL 2) are administered by intraperitoneal injection (IP). Animals are challenged, elicited for a T cell response, with DNFB topically applied to a target tissue such as ears at a point in time […] after administration, the point in time indicated as day 0. Swelling of the target, i.e., ear marker organ or tissue is measured at subsequent time points, exemplified as day 1 in the Figure.
Groups of experimental and control mice are administered an IL2 dose which is a constant amount (4 ng) in each group with the exception of a group of control animals not administered IL2, and are administered an amount of PS 341 that is varied (from 0.003 to 0.01 or 0.03 mg/kg total weight) in each of the various experimental groups. A control group of mice is administered IL 2 alone (no PS 341). […]
Inflammation was measured by ear swelling after applying topical DNFB. […]

For series [10] the following is noted: animal models and human subjects; cited from earlier work.
Series [11] relates to blood cell proteasome. Particulars: cited from earlier work.

Broadly, the half-life is the time in which the quantity being followed falls by half. For orientation: Kd means a measure of binding affinity in units of concentration. In the case of “des ala-1 serine 125 human interleukin 2 [IL2]”, in [1], the half-life was 1.5 h. The tolerability entry in series [2] (intravenous administration for extended periods) was “well tolerated”; in series [2] (low doses (<20 million Units), repeated daily dosing for many weeks), “well tolerated”. Besides, the dissociation constant (Kd) in series [3] was 0.01 nM.

Turning to `CC(C)C[C@H](NC(=O)[C@H](Cc1ccccc1)NC(=O)c1cnccn1)B(O)O` [PS-341, Pyz Phe boro leu; Pyz2,5 pyraninecarboxylic acid], the partial proteasome inhibition in [4] (0.03 mg/kg intravenous bolus dose) is recorded as 20-30%. Besides, the “maximal blood cell proteasome inhibition” value was 80% in [4] (0.3 mg/kg intravenous bolus, one hour after dosing) and 80% in [11] (humans, 1.38 mg/m^2 intravenous bolus, one hour after dosing). Further, the half-life entry in series [5] is “approximately 24 hours”; in series [5] (listed as Velcade) it was 24 h. The therapeutic effect entry in series [6] is listed as “not effective therapeutically”. Moreover, the tolerability result in [6] was “well tolerated”. Besides, the adverse events result in series [7] (human studies, doses that are 1 mg/m^2) is on record as “adverse events are observed”; in series [7] (human subjects, doses less than or equal to 0.4 mg/m^2, multiple administration), “No adverse events were observed”. The serious adverse events result in series [7] (human subjects, dose that causes partial inhibition of blood proteasome activity) was “does not cause serious adverse events”. Further, the therapeutic efficacy result in [8] was “no significant therapeutic efficacy”. Further, the “inhibition of DTH (ear swelling)” value in series [9] is listed as “increasing inhibition of DTH”. Also, the toxicity entry in [10] is given as “free from substantial toxicity”. The “inhibition of blood cell proteasome activity” value in series [11] (human subjects, 0.4 mg/m^2, single intravenous bolus injection) is given as 30%.
